# Experimental data reported in ChEMBL document CHEMBL1123912, “Analogues of the cytostatic and antimitogenic agents chlamydocin and HC-toxin: synthesis and biological activity of chloromethyl ketone and diazomethyl ketone functionalized cyclic tetrapeptides” (J Med Chem, 1987).
# Tested on: P815
# Test: Compound was evaluated for the inhibition of cell growth in mouse P-815 mastocytoma cells.
# Assay type: functional
# Details: read-out: ED50 (the source's name)
row,Structure (SMILES),EC50
1,CC1(C)NC(=O)[C@H](CCCCCC(=O)[C@H]2CO2)NC(=O)[C@H]2CCCN2C(=O)[C@H](Cc2ccccc2)NC1=O [CHLAMYDOCIN],0.00036 µg/mL

# Organism: Mus musculus
# Test: Compound was evaluated for the inhibition of Con A (concanavalin A) stimulated murine thymocyte mitogenesis.
# Assay type: functional
# Details: not given
row,Structure (SMILES),IC50
1,C[C@@H]1NC(=O)[C@H](C)NC(=O)[C@@H]2CCCN2C(=O)[C@H](CCCCCC(=O)CCl)NC1=O,0.04 µg/mL
2,C[C@@H]1NC(=O)[C@H](C)NC(=O)[C@@H]2CCCN2C(=O)[C@H](CCCCCC(=O)C=[N+]=[N-])NC1=O,> 2 µg/mL
3,C[C@@H]1NC(=O)[C@H](Cc2ccccc2)NC(=O)[C@@H]2CCCN2C(=O)[C@H](CCCCCC(=O)CCl)NC1=O,0.1 µg/mL
4,CC1(C)NC(=O)[C@H](CCCCCC(=O)CCl)NC(=O)[C@H]2CCCN2C(=O)[C@H](Cc2ccccc2)NC1=O,0.01 µg/mL
5,CC1(C)NC(=O)[C@H](CCCCCC(=O)[C@H]2CO2)NC(=O)[C@H]2CCCN2C(=O)[C@H](Cc2ccccc2)NC1=O [CHLAMYDOCIN],0.003 µg/mL
